Assay results as given in patent EP0512684B1, “Synergistic herbicidal compositions” (DOWELANCO, priority 1991, dated 1992).

Key:
Format in all cases: in vivo
Bilderdykia convolvulus = test: Postemergent weed control, greenhouse (Example I)
Procedure: (§1) In all Examples, the percent kill and control is measured on a scale of 0 percent = no kill and control 100 percent = complete kill and control. Representative compositions of the present invention were evaluated to determine their effectiveness in synergistic postemergent weed control operations. Suspension emulsions containing varying concentrations of the methylheptyl ester of ((4-amino-3,5-dichloro-6-fluoro-2-pyridinyl)oxy)-acetic acid (Compound B) and N-(2,6-dichloro-3-methylphenyl)-5,7-dimethoxy-1,2,4,-triazolo(1,5a)pyrimidine-2-sulfonamide (Compound A), were prepared as follows: A 250 g per litre suspension concentrate of Compound A was prepared by wet-milling the following ingredients, until a particle size distribution with a volume median diameter of about 2μm was obtained. Varying amounts of the resulting suspension concentrate were added to water to provide the desired concentration of Compound A. Similarly, varying amounts of a commercially available emulsifiable concentrate containing 200 g/l (as acid equivalent) of fluroxypyr 1 methylheptyl ester (Trade Mark […]-2) were added, to provide the desired concentration of Compound B. In each of the tests which follow, the composition was applied at a rate of 200 litres per hectare. Accordingly, in each case, the amount of water to which the suspension concentrate of Compound A and the emulsifiable concentrate of Compound B was added was sufficient to provide the desired application rates, when the resulting composition was used at this application rate. Seeds of the weed species Bilderdykia convolvulus, Viola arvensis, Lamium purpureum, Chenopodium album and Fumaria officinalis, and seeds of the crop plant winter wheat variety Avalon, were planted in beds of good agricultural soil and grown in a greenhouse. […] The results are shown in Tables I to V. In the tables which follow, those runs which include only one but not both of Compound A and Compound B are included as controls. Expected control is calculated as 100 -((% control by Compound A) x (% control by Compound B))/(100) [formula] where % control= 100-actual control according to the technique described in Colby, "Calculating Synergistic and Antagonistic Responses of Herbicidal Combinations", Weeds, Volume 15 (1967), pages 20-22 and Colby, "Greenhouse Evaluation of Herbicidal Combinations", Proc. NEWCC, No. 19, pages 312-320. The percent increase over the expected control is calculated as (Actual control)/(Expected Control)x 100 - 100 [formula]

Chenopodium album = test: Postemergent weed control, greenhouse (Example I)
Procedure: as §1

Fumaria officinalis [1] = test: Postemergent weed control, greenhouse (Example I)
Procedure: as §1

Lamium purpureum [2] = test: Postemergent weed control, greenhouse (Example I)
Procedure: as §1

Viola arvensis [3] = test: Postemergent weed control, greenhouse (Example I)
Procedure: as §1

Fumaria officinalis [4] = test: Postemergent weed control, field trials (Example II)
Procedure: In all Examples, the percent kill and control is measured on a scale of 0 percent = no kill and control 100 percent = complete kill and control. Expected control is calculated as 100 -((% control by Compound A) x (% control by Compound B))/(100) [formula] where % control= 100-actual control according to the technique described in Colby, "Calculating Synergistic and Antagonistic Responses of Herbicidal Combinations", Weeds, Volume 15 (1967), pages 20-22 and Colby, "Greenhouse Evaluation of Herbicidal Combinations", Proc. NEWCC, No. 19, pages 312-320. The percent increase over the expected control is calculated as (Actual control)/(Expected Control)x 100 - 100 [formula] Table I A number of compositions in accordance with the present invention were prepared as in Example I and evaluated in field trials to determine their effectiveness in the postemergent control of the weed Fumaria officinalis growing in the presence of spring barley of the variety Triumph. Seeds of the plants spring barley of the variety Triumph and the weed specie Fumaria officinalis were planted in plots 6 meters x 3 meters composed of calcareous clay loam soil. Two months after planting, the plants were sprayed at a rate of 200 litre/hectare with one of the compositions having an active material control such as to give treatment rates shown in Table VI. […]

Galium aparine = test: Weed control, visual percent control (Example IV)
Procedure: (§2) In all Examples, the percent kill and control is measured on a scale of 0 percent = no kill and control 100 percent = complete kill and control. Expected control is calculated as 100 -((% control by Compound A) x (% control by Compound B))/(100) [formula] where % control= 100-actual control according to the technique described in Colby, "Calculating Synergistic and Antagonistic Responses of Herbicidal Combinations", Weeds, Volume 15 (1967), pages 20-22 and Colby, "Greenhouse Evaluation of Herbicidal Combinations", Proc. NEWCC, No. 19, pages 312-320. The percent increase over the expected control is calculated as (Actual control)/(Expected Control)x 100 - 100 [formula] Table I An emulsifiable concentrate of fluroxypyr methyl ester (as compound B) was prepared having the following composition. Varying amounts of this emulsifiable concentrate containing 100 g/l Fluroxypyr methyl ester (as acid equivalent) were added to a suspension concentrate of compound A prepared as in Example I, to provide the desired concentration of Compound B. The resulting formulation was tested against the following weeds, at the growth stage indicated, by the method described above. [table] In each case, the composition was applied ata rate of 200 litres per hectare. The percent of control was assessed by visual percent control (tables VIII to XII) and also by measurement of fresh weight (tables XIII to XVII).

Veronica persica = test: Weed control, visual percent control (Example IV)
Procedure: as §2

Viola arvensis [5] = test: Weed control, visual percent control (Example IV)
Procedure: as §2

Lamium purpureum [6] = test: Weed control by reduction in fresh weight (Example IV)
Procedure: as §2

Matricaria inodora = test: Post-emergent weed control by reduction in fresh weight (Examples V, VI and VII)
Procedure: (§3) In all Examples, the percent kill and control is measured on a scale of 0 percent = no kill and control 100 percent = complete kill and control. Expected control is calculated as 100 -((% control by Compound A) x (% control by Compound B))/(100) [formula] where % control= 100-actual control according to the technique described in Colby, "Calculating Synergistic and Antagonistic Responses of Herbicidal Combinations", Weeds, Volume 15 (1967), pages 20-22 and Colby, "Greenhouse Evaluation of Herbicidal Combinations", Proc. NEWCC, No. 19, pages 312-320. The percent increase over the expected control is calculated as (Actual control)/(Expected Control)x 100 - 100 [formula] Table I A 20% w/w suspension concentrate of fluroxypyr acid in water was prepared by wet milling the ingredients shown in Table XVIII until a particle size distribution with a volume median diameter of about 2µm was obtained. Varying amounts of the resulting suspension concentrate were added to water to provide the desired concentration of fluroxypyr acid. […] Varying amounts of the resulting solutions were further diluted with water to provide the desired concentration of the fluroxypyr salt. Similarly, varying amounts of the suspension concentrate of compound A prepared as in Example 1 were added, to provide the desired concentration of compound A. The formulations resulting from Examples V, VI and VII were evaluated to determine their effectiveness in the post-emergent control of the weeds Viola arvensis, Galium aparine, and Matricaria inodora.

Viola arvensis [7] = test: as above
Procedure: as §3

## COc1cc(OC)n2nc(S(=O)(=O)Nc3c(Cl)ccc(C)c3Cl)nc2n1 [Cmpd A, N-(2,6-dichloro-3-methylphenyl)-5,7-dimethoxy-1,2,4,-triazolo(1,5a)pyrimidine-2-sulfonamide]
Bilderdykia convolvulus; Cmpd A 6.25 g/ha alone
  Actual Control (%) 32 days after treatment: 0%
Bilderdykia convolvulus; Cmpd A 12.50 g/ha alone
  Actual Control (%) 32 days after treatment: 45%
Bilderdykia convolvulus; Cmpd A 25.00 g/ha alone
  Actual Control (%) 32 days after treatment: 30%
Bilderdykia convolvulus; Cmpd A 50.00 g/ha alone
  Actual Control (%) 32 days after treatment: 53%
Chenopodium album; Cmpd A 3.125 g/ha alone
  Actual Control 19 days after treatment (%): 47%
Chenopodium album; Cmpd A 6.25 g/ha alone
  Actual Control 19 days after treatment (%): 60%
Chenopodium album; Cmpd A 12.50 g/ha alone
  Actual Control 19 days after treatment (%): 55%
Chenopodium album; Cmpd A 25.00 g/ha alone
  Actual Control 19 days after treatment (%): 60%
Fumaria officinalis [1]; Cmpd A 3.125 g/ha alone
  Actual Control 19 days after treatment (%): 5%
Fumaria officinalis [1]; Cmpd A 6.25 g/ha alone
  Actual Control 19 days after treatment (%): 18%
Fumaria officinalis [1]; Cmpd A 12.50 g/ha alone
  Actual Control 19 days after treatment (%): 0%
Fumaria officinalis [1]; Cmpd A 25.00 g/ha alone
  Actual Control 19 days after treatment (%): 18%
Lamium purpureum [2]; Cmpd A 6.25 g/ha alone
  Actual Control (%) 12 days after treatment: 18%
Lamium purpureum [2]; Cmpd A 12.50 g/ha alone
  Actual Control (%) 12 days after treatment: 24%
Lamium purpureum [2]; Cmpd A 25.00 g/ha alone
  Actual Control (%) 12 days after treatment: 25%
Lamium purpureum [2]; Cmpd A 50.00 g/ha alone
  Actual Control (%) 12 days after treatment: 23%
Viola arvensis [3]; Cmpd A 6.25 g/ha alone
  Actual Control (%) 17 days after treatment: 15%
Viola arvensis [3]; Cmpd A 12.50 g/ha alone
  Actual Control (%) 17 days after treatment: 36%
Viola arvensis [3]; Cmpd A 25.00 g/ha alone
  Actual Control (%) 17 days after treatment: 39%
Viola arvensis [3]; Cmpd A 50.00 g/ha alone
  Actual Control (%) 17 days after treatment: 50%
Fumaria officinalis [4]; Cmpd A 10.0 g/ha alone
  Actual Control 28 days after treatment (%): 0.0%
Fumaria officinalis [4]; Cmpd A 20.0 g/ha alone
  Actual Control 28 days after treatment (%): 15.0%
Galium aparine; Cmpd A 3.125 g/ha alone
  Actual Control (%) 19 days after treatment: 0%
Galium aparine; Cmpd A 6.25 g/ha alone
  Actual Control (%) 19 days after treatment: 0%
Galium aparine; Cmpd A 12.5 g/ha alone
  Actual Control (%) 19 days after treatment: 0%
Galium aparine; Cmpd A 25.0 g/ha alone
  Actual Control (%) 19 days after treatment: 0%
Veronica persica; Cmpd A 3.125 g/ha alone
  Actual Control (%) 19 days after treatment: 10%
Veronica persica; Cmpd A 6.25 g/ha alone
  Actual Control (%) 19 days after treatment: 20%
Veronica persica; Cmpd A 12.5 g/ha alone
  Actual Control (%) 19 days after treatment: 28%
Veronica persica; Cmpd A 25.0 g/ha alone
  Actual Control (%) 19 days after treatment: 30%
Viola arvensis [5]; Cmpd A 3.125 g/ha alone
  Actual Control (%) 19 days after treatment: 22%
Viola arvensis [5]; Cmpd A 6.25 g/ha alone
  Actual Control (%) 19 days after treatment: 12%
Viola arvensis [5]; Cmpd A 12.5 g/ha alone
  Actual Control (%) 19 days after treatment: 55%
Viola arvensis [5]; Cmpd A 25.0 g/ha alone
  Actual Control (%) 19 days after treatment: 72%
Lamium purpureum [6]; Cmpd A 3.125 g/ha
  Actual Reduction (%) 19 days after treatment: 4%
Lamium purpureum [6]; Cmpd A 6.25 g/ha
  Actual Reduction (%) 19 days after treatment: 0%
Lamium purpureum [6]; Cmpd A 12.5 g/ha
  Actual Reduction (%) 19 days after treatment: 19%
Lamium purpureum [6]; Cmpd A 25.0 g/ha
  Actual Reduction (%) 19 days after treatment: 11%
Matricaria inodora; Cmpd A 6.25 g/ha
  Actual Control (%) 17 days after treatment: 7%
Matricaria inodora; Cmpd A 12.50 g/ha
  Actual Control (%) 17 days after treatment: 32%
Matricaria inodora; Cmpd A 25.00 g/ha
  Actual Control (%) 17 days after treatment: 75%
Matricaria inodora; Cmpd A 50.00 g/ha
  Actual Control (%) 17 days after treatment: 72%
Viola arvensis [7]; Cmpd A 6.25 g/ha
  Actual Control (%) 23 days after treatment: 20%
Viola arvensis [7]; Cmpd A 6.25 g/ha, Table XX
  Actual Control (%) 23 days after treatment: 20%
Viola arvensis [7]; Cmpd A 12.50 g/ha
  Actual Control (%) 23 days after treatment: 50%
Viola arvensis [7]; Cmpd A 12.50 g/ha, Table XX
  Actual Control (%) 23 days after treatment: 50%
Viola arvensis [7]; Cmpd A 25.00 g/ha
  Actual Control (%) 23 days after treatment: 52%
Viola arvensis [7]; Cmpd A 25.00 g/ha, Table XX
  Actual Control (%) 23 days after treatment: 52%
Viola arvensis [7]; Cmpd A 50.00 g/ha
  Actual Control (%) 23 days after treatment: 60%
Viola arvensis [7]; Cmpd A 50.00 g/ha, Table XX
  Actual Control (%) 23 days after treatment: 60%
